Experiments:
SUMOylation = details: read-out: IC50 in SUMOylation biochemical assays; among 780 assays; ref PubChem; cited from earlier work
RORγ = details: read-out: IC50 in cellular assay of RORγ; among 780 assays; ref PubChem; cited from earlier work
[1] = test system: SUMOylation in HCT-116 cells; assay: Western blot of SUMOylated proteins; type: cell-based, human; details: 18 hours treatment
SUMO E1 [2] = molecular target: T1, SUMO E1 (Homo sapiens, UniProt Q9UBT2); assay: Differential scanning fluorimetry of SUMO E1; details: SUMO E1 fully inhibited by COH000
HCT-116 cells = assay: Apoptosis by flow cytometry; type: cell-based, human; details: 10 μM for 20 h
[3] = molecular target: SAE2 (SUMO E1) Cys residues (Homo sapiens, UniProt Q9UBT2); assay: LC-MS/MS analysis of pepsin digest of SUMO E1 inhibited by COH000; type: binding
[4] = molecular target: T2, ubiquitin activating enzyme in HCT-116 cells (Homo sapiens, UniProt P22314); assay: Western blot of ubiquitin•Ubc5 thioester formation in cells; type: cell-based; details: HCT-116 cell lysates
T2 sequence (P22314 1-1058): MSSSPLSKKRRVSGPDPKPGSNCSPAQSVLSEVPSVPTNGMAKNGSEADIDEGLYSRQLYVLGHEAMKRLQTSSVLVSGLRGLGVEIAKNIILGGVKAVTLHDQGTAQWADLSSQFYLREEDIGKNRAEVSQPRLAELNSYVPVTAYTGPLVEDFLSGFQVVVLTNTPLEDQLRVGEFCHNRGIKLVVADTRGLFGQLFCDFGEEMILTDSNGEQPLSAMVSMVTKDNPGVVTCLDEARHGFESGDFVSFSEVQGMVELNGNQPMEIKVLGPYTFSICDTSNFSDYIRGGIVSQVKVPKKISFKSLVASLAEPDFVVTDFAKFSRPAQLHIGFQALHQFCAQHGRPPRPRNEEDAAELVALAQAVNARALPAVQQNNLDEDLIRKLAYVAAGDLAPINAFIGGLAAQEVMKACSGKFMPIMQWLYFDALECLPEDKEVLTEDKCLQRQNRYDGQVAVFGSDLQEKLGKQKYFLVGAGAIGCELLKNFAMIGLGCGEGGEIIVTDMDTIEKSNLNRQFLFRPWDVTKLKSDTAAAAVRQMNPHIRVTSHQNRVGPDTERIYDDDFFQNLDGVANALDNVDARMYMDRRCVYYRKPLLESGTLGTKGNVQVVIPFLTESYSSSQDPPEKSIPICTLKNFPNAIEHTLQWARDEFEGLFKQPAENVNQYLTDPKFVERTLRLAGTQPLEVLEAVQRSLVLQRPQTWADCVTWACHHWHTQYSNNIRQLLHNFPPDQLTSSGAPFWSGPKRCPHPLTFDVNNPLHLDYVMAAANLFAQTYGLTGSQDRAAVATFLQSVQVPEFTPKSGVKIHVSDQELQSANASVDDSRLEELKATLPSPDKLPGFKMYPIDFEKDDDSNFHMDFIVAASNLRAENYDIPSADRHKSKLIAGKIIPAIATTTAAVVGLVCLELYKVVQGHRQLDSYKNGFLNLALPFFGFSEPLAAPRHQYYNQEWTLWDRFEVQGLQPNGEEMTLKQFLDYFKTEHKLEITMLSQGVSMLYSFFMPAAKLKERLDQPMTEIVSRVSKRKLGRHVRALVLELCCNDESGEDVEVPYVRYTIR

SUMO E1 WT = SUMO E1 WT (Homo sapiens, UniProt Q9UBT2); type: biochemical; details: 0.25 μM E1 WT, 15 minutes at 37 °C
SUMO E1 in HCT-116 cells = SUMO E1 in HCT-116 cells (Homo sapiens, UniProt Q9UBT2); assay: Western blot of Ubc9•SUMO thioester formation in cells; details: HCT-116 cell lysates
SAE2 in HCT116 cells [5] = molecular target: T3, SAE2 in HCT116 cells (Homo sapiens, UniProt Q9UBT2); assay: Cellular thermal shift assay; details: 2 hours at 37°C, 42–56°C
[6] = molecular target: SUMO E1 (SAE) adenylation step (Homo sapiens, UniProt Q9UBT2); assay: ATP:PPi isotope exchange assay of the adenylation step
[7] = test system: primary colorectal tumor cells from PDX; assay: Primary colorectal tumor cells from patient-derived xenograft tissues; type: cell-based, human
SUMO E1 [8] = molecular target: T1, SUMO E1; assay: Dialysis of inhibited SUMO E1 followed by SUMOylation assay; type: biochemical; details: no enzyme activity up to 8 hours of dialysis
[9] = molecular target: T4, Nedd8 activating enzyme in HCT-116 cells (Homo sapiens, UniProt Q8TBC4); assay: Western blot of Nedd8•Ubc12 thioester formation in cells; type: cell-based; details: HCT-116 cell lysates
T4 sequence (Q8TBC4 1-463): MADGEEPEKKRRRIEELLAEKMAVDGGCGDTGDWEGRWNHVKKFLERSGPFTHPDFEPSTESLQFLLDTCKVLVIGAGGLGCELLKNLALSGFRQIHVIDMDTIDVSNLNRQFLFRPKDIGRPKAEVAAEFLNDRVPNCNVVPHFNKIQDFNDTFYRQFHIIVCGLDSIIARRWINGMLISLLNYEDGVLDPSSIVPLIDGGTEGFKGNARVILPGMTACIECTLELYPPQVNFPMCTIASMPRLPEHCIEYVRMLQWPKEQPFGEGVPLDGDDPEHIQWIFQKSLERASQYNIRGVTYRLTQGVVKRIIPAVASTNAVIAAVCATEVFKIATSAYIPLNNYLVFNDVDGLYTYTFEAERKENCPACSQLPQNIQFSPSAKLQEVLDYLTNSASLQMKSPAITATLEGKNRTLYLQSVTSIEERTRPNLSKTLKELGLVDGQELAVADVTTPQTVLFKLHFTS
T4 sequence (Q13564 1-534 partner): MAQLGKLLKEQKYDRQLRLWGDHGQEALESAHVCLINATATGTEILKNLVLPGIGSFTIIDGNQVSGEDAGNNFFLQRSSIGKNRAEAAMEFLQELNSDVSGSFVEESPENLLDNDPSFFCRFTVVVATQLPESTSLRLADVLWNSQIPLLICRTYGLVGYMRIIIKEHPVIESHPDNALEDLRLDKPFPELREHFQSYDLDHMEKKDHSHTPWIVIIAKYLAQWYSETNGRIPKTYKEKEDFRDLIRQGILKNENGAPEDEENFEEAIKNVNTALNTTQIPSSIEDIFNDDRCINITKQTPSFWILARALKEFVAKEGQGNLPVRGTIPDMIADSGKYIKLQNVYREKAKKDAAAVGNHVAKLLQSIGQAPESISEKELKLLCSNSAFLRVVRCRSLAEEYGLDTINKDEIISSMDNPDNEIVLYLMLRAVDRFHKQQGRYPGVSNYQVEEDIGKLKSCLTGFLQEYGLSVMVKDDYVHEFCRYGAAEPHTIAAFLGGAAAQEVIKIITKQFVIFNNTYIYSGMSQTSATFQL

[10] = test system: ubiquitylation (Ubc13-mediated poly-ubiquitylation); assay: Ubc13-mediated poly-ubiquitylation assay; type: biochemical, human; details: same condition as SUMOylation assay
SAE2 in HCT116 cells [11] = molecular target: T3, SAE2 in HCT116 cells; assay: Pulse-chase assay of SAE2 degradation
[12] = test system: miR-34b and c-Myc in lymphoma (Raji) and colorectal cancer (HCT116) cells; assay: RT-qPCR and Western blot of miR-34b and c-Myc in cancer cell lines; type: cell-based, human
[13] = test system: cellular proteins of HCT116 cells; assay: Target profiling by pull-down with alkyne-containing probe; type: cell-based, human; details: preliminary profiling, 2 μM
HCT-116 cell xenograft = assay: HCT116 xenograft in plasma esterase-deficient SCID mice; type: in vivo, mouse (Es1e/SCID)
SAE2 = SAE2 (Homo sapiens, UniProt Q9UBT2); assay: Western blot of SAE2 level and modification in cells with or without MG132; details: MG132 2 hours prior, 2 hours of COH000 treatment
SUMO E1 C30S mutant = molecular target: T5, SUMO E1 C30S mutant (Homo sapiens, UniProt Q9UBT2, C30S); type: biochemical; details: 0.25 μM E1 C30S, 15 minutes at 37 °C
T5 sequence (Q9UBT2 1-640 C30S): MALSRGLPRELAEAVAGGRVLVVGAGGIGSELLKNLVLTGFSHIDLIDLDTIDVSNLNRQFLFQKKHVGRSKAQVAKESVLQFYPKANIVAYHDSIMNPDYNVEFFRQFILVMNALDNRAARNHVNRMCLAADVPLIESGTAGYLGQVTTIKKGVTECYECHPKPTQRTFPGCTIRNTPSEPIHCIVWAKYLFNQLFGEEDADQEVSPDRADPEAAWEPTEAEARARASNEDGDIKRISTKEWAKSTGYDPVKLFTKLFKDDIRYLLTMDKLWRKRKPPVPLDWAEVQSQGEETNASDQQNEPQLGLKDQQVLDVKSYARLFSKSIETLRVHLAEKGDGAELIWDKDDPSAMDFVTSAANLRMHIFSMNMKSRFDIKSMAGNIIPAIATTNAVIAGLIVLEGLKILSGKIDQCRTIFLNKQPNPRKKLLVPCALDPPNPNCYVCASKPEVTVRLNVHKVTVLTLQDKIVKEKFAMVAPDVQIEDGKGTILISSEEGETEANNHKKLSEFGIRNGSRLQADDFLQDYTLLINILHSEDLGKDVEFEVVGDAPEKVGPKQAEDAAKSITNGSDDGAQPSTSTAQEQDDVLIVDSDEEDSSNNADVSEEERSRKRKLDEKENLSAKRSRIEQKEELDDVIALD
T5 sequence (Q9UBE0 1-346 partner): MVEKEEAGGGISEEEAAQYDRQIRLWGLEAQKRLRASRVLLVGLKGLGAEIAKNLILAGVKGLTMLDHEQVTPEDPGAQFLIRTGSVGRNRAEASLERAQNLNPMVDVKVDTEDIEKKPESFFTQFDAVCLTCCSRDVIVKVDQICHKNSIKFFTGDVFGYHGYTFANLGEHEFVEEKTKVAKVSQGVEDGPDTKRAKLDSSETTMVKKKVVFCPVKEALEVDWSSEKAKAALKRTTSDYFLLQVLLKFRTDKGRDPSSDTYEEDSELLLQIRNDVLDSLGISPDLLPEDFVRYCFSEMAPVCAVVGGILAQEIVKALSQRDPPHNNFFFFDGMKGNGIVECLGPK

[14] = molecular target: SUMO activating enzyme (SAE, SUMO E1) (Homo sapiens, UniProt Q9UBT2); assay: AlphaScreen in vitro SUMOylation assay; type: biochemical
[15] = 10 mg/kg s.c. peritumoral once a day, 14 days

T1 sequence (Q9UBT2 whole entry, one chain of several): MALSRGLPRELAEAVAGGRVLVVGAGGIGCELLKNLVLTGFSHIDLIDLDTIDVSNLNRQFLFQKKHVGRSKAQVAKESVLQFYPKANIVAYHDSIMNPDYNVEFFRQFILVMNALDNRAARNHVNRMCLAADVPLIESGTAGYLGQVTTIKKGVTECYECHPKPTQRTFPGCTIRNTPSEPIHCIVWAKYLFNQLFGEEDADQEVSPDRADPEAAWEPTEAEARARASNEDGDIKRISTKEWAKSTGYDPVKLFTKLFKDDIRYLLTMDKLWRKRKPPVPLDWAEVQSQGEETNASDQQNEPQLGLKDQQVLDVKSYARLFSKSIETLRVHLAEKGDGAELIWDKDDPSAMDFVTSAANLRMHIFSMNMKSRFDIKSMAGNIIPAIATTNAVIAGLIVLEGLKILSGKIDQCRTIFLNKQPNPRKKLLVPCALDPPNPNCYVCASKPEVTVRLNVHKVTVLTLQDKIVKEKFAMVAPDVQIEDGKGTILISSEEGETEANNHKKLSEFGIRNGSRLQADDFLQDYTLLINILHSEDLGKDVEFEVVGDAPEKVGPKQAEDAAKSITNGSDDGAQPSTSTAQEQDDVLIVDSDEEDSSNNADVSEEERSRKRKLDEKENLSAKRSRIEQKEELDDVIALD
T3 sequence (Q9UBT2 whole entry, one chain of several): as above
Sequence of SUMO E1 (SAE) adenylation step (Q9UBT2 whole entry, one chain of several): as above
Sequence of SUMO activating enzyme (SAE, SUMO E1) (Q9UBT2 whole entry, one chain of several): as above
Sequence of SAE2 (SUMO E1) Cys residues (Q9UBT2 whole entry, one chain of several): as above
Sequence of SAE2 (Q9UBT2 whole entry, one chain of several): as above
Sequence of SUMO E1 WT (Q9UBT2 whole entry, one chain of several): as above
Sequence of SUMO E1 in HCT-116 cells (Q9UBT2 whole entry, one chain of several): as above

SMILES: C=CCC(Nc1ccccc1)C12C=CC(O1)C(C(=O)OC)=C2C(=O)OC (stereo not drawn) [CID 9549553]
- IC50 (SUMOylation): < 7 µM
- IC50 (RORγ): < 7 µM

SMILES: COC(=O)C1=C(C(=O)OC)C2([C@@H](Cc3ccc(C)cc3)Nc3ccccc3)C=CC1O2 (stereo partly drawn) [COH000, dimethyl 1-((R)-1-(phenylamino)-2-(p-tolyl)ethyl)7-oxabicyclo[2.2.1]hepta-2,5-diene-2,3-dicarboxylate]
- SUMOylation in cells [1]: inhibited SUMOylation in a dose-dependent manner
- thermal denaturation of SUMO E1, inhibitor bound vs unbound (SUMO E1 [2]): higher melting temperature
- apoptosis (HCT-116 cells): consistently induced apoptosis
- modification of catalytic Cys173 of SAE2 ([3]; full inhibition by the compound): did not modify Cys173
- labeling of SAE2 Cys30 by intact mass ([3]; full inhibition, >10 fold excess for > 1 h): 100%
- ubiquitin•Ubc5 thioester formation in cells [4]: did not inhibit the homologous enzymes catalyzing ubiquitylation or NEDDylation
- inhibition of Ubc9•SUMO thioester formation, WT enzyme (SUMO E1 WT): inhibited by COH000 in a dose-dependent manner
- SUMO•Ubc9 thioester formation in cells (SUMO E1 in HCT-116 cells): inhibited only SUMO•Ubc9 thioester formation in a dose-dependent manner
- thermal stability of SAE2 in cells (CETSA) (SAE2 in HCT116 cells [5]): increased the thermal stability of the enzyme in a dose dependent manner
- effect on SUMO adenylation (32PPi:ATP isotope exchange) ([6]; COH000 0–2 μM): inhibited SUMO adenylation
- effect of increasing ATP or SUMO1 on the inhibition of adenylation ([6]; increasing concentrations of ATP or SUMO1): not overcome with increasing concentrations of ATP or SUMO1
- cancer cell viability in primary colorectal PDX samples [7]: decreased cancer cell viability
- apoptosis in primary colorectal PDX samples ([7]; 48 h treatment): induced apoptosis
- c-Myc level, samples from Patient #2 and #3 ([7]; higher c-Myc levels): showed reduced c-Myc levels
- c-Myc level, sample from Patient #1 ([7]; lowest c-Myc level among the three samples): did not show much further reduction of c-Myc level
- reversibility of SUMO E1 inhibition (SUMO E1 [8]): irreversible
- NEDD8•Ubc12 thioester formation in cells [9]: did not inhibit the homologous enzymes catalyzing ubiquitylation or NEDDylation
- concentration up to which ubiquitylation was not inhibited [10]: > 100 µM
- degradation of SAE2 (pulse-chase) (SAE2 in HCT116 cells [11]): increased the degradation of SAE2
- miR-34b expression ([12]; 2 days of treatment, RT-qPCR): increased the expression of miR-34b
- c-Myc mRNA and protein levels ([12]; RT-qPCR and Western blot): reduced c-Myc mRNA and protein levels
- other targets in cells (pull-down with alkyne-containing analog probe) [13]: does not have a large number of other targets
- SAE2 levels in tumor tissues (IHC) (HCT-116 cell xenograft; [15]): significantly reduced SAE2 levels in tumor tissues
- apoptosis in tumor tissue (TUNEL) (HCT-116 cell xenograft; [15]): increased apoptosis
- c-Myc protein level in tumor (IHC) (HCT-116 cell xenograft; [15]): The c-Myc protein level was reduced
- tumor growth (HCT-116 cell xenograft; [15]): significantly inhibited tumor growth
- miR-34b level in tumor tissues (HCT-116 cell xenograft; COH000-treated vs vehicle-treated mice): miR-34b level is higher in tumor tissues
- ubiquitylation of SAE2 in cells (SAE2): increased ubiquitylation of SAE2
- inhibition of Ubc9•SUMO thioester formation, C30S mutant (SUMO E1 C30S mutant): the C30S mutant was not
- IC50 [14]: ~0.2 µM
- selectivity for SUMOylation than ubiquitylation ([14]; SUMOylation vs Ubc13-mediated poly-ubiquitylation): over 500 fold
